{"source": "paper PMC12073449", "about": "“Development of a Mechanism of Action-Reflective Cell-Based Reporter Gene Assay for Measuring Bioactivities of Therapeutic Glucagon-like Peptide-2 Analogues” (Molecules, 2025)", "tested_on": "HEK293-GLP-2R-Luc cells", "note": "Ends that are not written are not given here.", "data": [{"substance": "HGEGTFSSELATILDALAARDFINWLIATKITDKKKKKK-NH2 [glepaglutide]", "values": [{"measurement": "log2 (TD/Ctrl) CACNB1", "setting": "Qvalue 4.04 × 10^−5", "result": 1.075}, {"measurement": "log2 (TD/Ctrl) CHAC1", "setting": "Qvalue 4.05 × 10^−4", "result": 1.141}, {"measurement": "log2 (TD/Ctrl) PDK4", "setting": "Qvalue 4.05 × 10^−7", "result": 1.463}, {"measurement": "log2 (TD/Ctrl) GUCY1A1", "setting": "Qvalue 4.19 × 10^−5", "result": "−1.107"}, {"measurement": "log2 (TD/Ctrl) SNAP25", "setting": "Qvalue 4.24 × 10^−5", "result": 1.698}, {"measurement": "log2 (TD/Ctrl) CALCB", "setting": "Qvalue 4.28 × 10^−58", "result": 3.658}, {"measurement": "log2 (TD/Ctrl) PDE8B", "setting": "Qvalue 4.35 × 10^−6", "result": 1.08}, {"measurement": "log2 (TD/Ctrl) FAM86B2", "setting": "Qvalue 4.40 × 10^−6", "result": 1.144}, {"measurement": "log2 (TD/Ctrl) CD55", "setting": "Qvalue 4.43 × 10^−29", "result": 1.554}, {"measurement": "log2 (TD/Ctrl) PDE10A", "setting": "Qvalue 4.45 × 10^−11", "result": 1.052}, {"measurement": "log2 (TD/Ctrl) IGFBP5", "setting": "Qvalue 4.48 × 10^−29", "result": "−1.803"}, {"measurement": "log2 (TD/Ctrl) PPP1R15A", "setting": "Qvalue 4.52 × 10^−19", "result": 1.729}, {"measurement": "log2 (TD/Ctrl) FAM131B", "setting": "Qvalue 4.57 × 10^−4", "result": 2.284}, {"measurement": "log2 (TD/Ctrl) DCLK1", "setting": "Qvalue 4.77 × 10^−6", "result": 1.118}, {"measurement": "log2 (TD/Ctrl) ARC", "setting": "Qvalue 4.77 × 10^−21", "result": 2.548}, {"measurement": "log2 (TD/Ctrl) TRMT11", "setting": "Qvalue 4.83 × 10^−7", "result": 1.007}, {"measurement": "log2 (TD/Ctrl) BRSK1", "setting": "Qvalue 4.84 × 10^−4", "result": 1.033}, {"measurement": "log2 (TD/Ctrl) CXCL8", "setting": "Qvalue 4.89 × 10^−10", "result": 2.264}, {"measurement": "log2 (TD/Ctrl) MMP10", "setting": "Qvalue 4.91 × 10^−4", "result": 2.63}, {"measurement": "log2 (TD/Ctrl) NTS", "setting": "Qvalue 4.98 × 10^−8", "result": 3.901}, {"measurement": "log2 (TD/Ctrl) INKA2", "setting": "Qvalue 5.19 × 10^−4", "result": "−1.14"}, {"measurement": "log2 (TD/Ctrl) RSRC2", "setting": "Qvalue 5.28 × 10^−10", "result": 1.09}, {"measurement": "log2 (TD/Ctrl) PCDH9", "setting": "Qvalue 5.30 × 10^−8", "result": "−1.158"}, {"measurement": "log2 (TD/Ctrl) NCOA5", "setting": "Qvalue 5.31 × 10^−8", "result": "−1.2433"}, {"measurement": "log2 (TD/Ctrl) PROCR", "setting": "Qvalue 5.32 × 10^−8", "result": 1.201}, {"measurement": "log2 (TD/Ctrl) AVPI1", "setting": "Qvalue 5.33 × 10^−8", "result": 1.192}, {"measurement": "log2 (TD/Ctrl) IL12A", "setting": "Qvalue 5.36 × 10^−4", "result": 1.606}, {"measurement": "log2 (TD/Ctrl) CCN2", "setting": "Qvalue 5.36 × 10^−15", "result": 2.558}, {"measurement": "log2 (TD/Ctrl) PCSK1", "setting": "Qvalue 5.37 × 10^−34", "result": 5.002}, {"measurement": "log2 (TD/Ctrl) HSPB8", "setting": "Qvalue 5.44 × 10^−4", "result": 1.961}, {"measurement": "log2 (TD/Ctrl) CHGB", "setting": "Qvalue 5.45 × 10^−20", "result": 3.305}, {"measurement": "log2 (TD/Ctrl) LY6K", "setting": "Qvalue 5.54 × 10^−6", "result": 2.444}, {"measurement": "log2 (TD/Ctrl) TNFRSF10D", "setting": "Qvalue 5.55 × 10^−11", "result": "−1.432"}, {"measurement": "log2 (TD/Ctrl) RNF122", "setting": "Qvalue 5.63 × 10^−24", "result": 1.985}, {"measurement": "log2 (TD/Ctrl) PAPPA", "setting": "Qvalue 5.75 × 10^−4", "result": 1.578}, {"measurement": "log2 (TD/Ctrl) CTH", "setting": "Qvalue 5.77 × 10^−13", "result": 1.317}, {"measurement": "log2 (TD/Ctrl) ETV5", "setting": "Qvalue 5.77 × 10^−17", "result": 1.932}, {"measurement": "log2 (TD/Ctrl) FOSL1", "setting": "Qvalue 5.84 × 10^−23", "result": 3.193}, {"measurement": "log2 (TD/Ctrl) UBE2QL1", "setting": "Qvalue 5.89 × 10^−10", "result": 1.897}, {"measurement": "log2 (TD/Ctrl) PCK1", "setting": "Qvalue 5.99 × 10^−8", "result": 4.954}, {"measurement": "log2 (TD/Ctrl) SYAP1", "setting": "Qvalue 6.03 × 10^−37", "result": 1.501}, {"measurement": "log2 (TD/Ctrl) ADAMTS1", "setting": "Qvalue 6.10 × 10^−16", "result": 1.32}, {"measurement": "log2 (TD/Ctrl) TSPAN18", "setting": "Qvalue 6.12 × 10^−5", "result": 1.221}, {"measurement": "log2 (TD/Ctrl) ZNF697", "setting": "Qvalue 6.15 × 10^−17", "result": 1.651}, {"measurement": "log2 (TD/Ctrl) NME1-NME2", "setting": "Qvalue 6.18 × 10^−4", "result": 1.069}, {"measurement": "log2 (TD/Ctrl) TAF1D", "setting": "Qvalue 6.18 × 10^−6", "result": 1.001}, {"measurement": "log2 (TD/Ctrl) GAB2", "setting": "Qvalue 6.27 × 10^−10", "result": 1.866}, {"measurement": "log2 (TD/Ctrl) ZNF718", "setting": "Qvalue 6.33 × 10^−4", "result": "−1.3027"}, {"measurement": "log2 (TD/Ctrl) OMA1", "setting": "Qvalue 6.34 × 10^−6", "result": "−1.165"}, {"measurement": "log2 (TD/Ctrl) EPHA7", "setting": "Qvalue 6.41 × 10^−18", "result": "−1.443"}, {"measurement": "log2 (TD/Ctrl) NR4A3", "setting": "Qvalue 6.44 × 10^−8", "result": 1.795}, {"measurement": "log2 (TD/Ctrl) AREG", "setting": "Qvalue 6.48 × 10^−5", "result": 3.509}, {"measurement": "log2 (TD/Ctrl) ZCCHC12", "setting": "Qvalue 6.60 × 10^−42", "result": 2.11}, {"measurement": "log2 (TD/Ctrl) CHMP1B", "setting": "Qvalue 6.69 × 10^−14", "result": 1.048}, {"measurement": "log2 (TD/Ctrl) KBTBD7", "setting": "Qvalue 6.73 × 10^−6", "result": "−1.122"}, {"measurement": "log2 (TD/Ctrl) FAM200C", "setting": "Qvalue 6.74 × 10^−4", "result": "−1.19"}, {"measurement": "log2 (TD/Ctrl) EGR1", "setting": "Qvalue 6.76 × 10^−10", "result": 2.978}, {"measurement": "log2 (TD/Ctrl) PLAUR", "setting": "Qvalue 6.86 × 10^−10", "result": 1.559}, {"measurement": "log2 (TD/Ctrl) MAP2K6", "setting": "Qvalue 6.95 × 10^−9", "result": "−1.348"}, {"measurement": "log2 (TD/Ctrl) NR4A2", "setting": "Qvalue 7.07 × 10^−23", "result": 2.428}, {"measurement": "log2 (TD/Ctrl) P2RY11", "setting": "Qvalue 7.12 × 10^−9", "result": "−9.7959"}, {"measurement": "log2 (TD/Ctrl) CARMIL2", "setting": "Qvalue 7.13 × 10^−10", "result": 1.753}, {"measurement": "log2 (TD/Ctrl) COL7A1", "setting": "Qvalue 7.17 × 10^−4", "result": "−1.612"}, {"measurement": "log2 (TD/Ctrl) KRT17", "setting": "Qvalue 7.46 × 10^−4", "result": 3.685}, {"measurement": "log2 (TD/Ctrl) PTRH1", "setting": "Qvalue 7.65 × 10^−4", "result": 1.322}, {"measurement": "log2 (TD/Ctrl) CBARP", "setting": "Qvalue 7.76 × 10^−5", "result": 1.225}, {"measurement": "log2 (TD/Ctrl) ZBTB12", "setting": "Qvalue 7.78 × 10^−9", "result": "−1.6"}, {"measurement": "log2 (TD/Ctrl) CGA", "setting": "Qvalue 7.84 × 10^−76", "result": 7.042}, {"measurement": "log2 (TD/Ctrl) SERPINE2", "setting": "Qvalue 7.93 × 10^−10", "result": 1.136}, {"measurement": "log2 (TD/Ctrl) GABARAPL1", "setting": "Qvalue 8.03 × 10^−15", "result": 1.405}, {"measurement": "log2 (TD/Ctrl) COL1A1", "setting": "Qvalue 8.07 × 10^−20", "result": 1.91}, {"measurement": "log2 (TD/Ctrl) NDRG4", "setting": "Qvalue 8.22 × 10^−4", "result": 1.306}, {"measurement": "log2 (TD/Ctrl) QRICH2", "setting": "Qvalue 8.25 × 10^−6", "result": "−1.253"}, {"measurement": "log2 (TD/Ctrl) CD24", "setting": "Qvalue 8.27 × 10^−27", "result": 2.289}, {"measurement": "log2 (TD/Ctrl) ZNF331", "setting": "Qvalue 8.43 × 10^−12", "result": 1.041}, {"measurement": "log2 (TD/Ctrl) FZD4", "setting": "Qvalue 8.54 × 10^−5", "result": "−1.071"}, {"measurement": "log2 (TD/Ctrl) RGS6", "setting": "Qvalue 8.61 × 10^−5", "result": 4.489}, {"measurement": "log2 (TD/Ctrl) NR4A1", "setting": "Qvalue 8.67 × 10^−7", "result": 4.426}, {"measurement": "log2 (TD/Ctrl) BMPER", "setting": "Qvalue 8.87 × 10^−4", "result": 2.13}, {"measurement": "log2 (TD/Ctrl) IER2", "setting": "Qvalue 9.14 × 10^−13", "result": 1.167}, {"measurement": "log2 (TD/Ctrl) INHBA", "setting": "Qvalue 9.22 × 10^−49", "result": 4.678}, {"measurement": "log2 (TD/Ctrl) SERPINB9", "setting": "Qvalue 9.32 × 10^−11", "result": 1.4}, {"measurement": "log2 (TD/Ctrl) GADD45B", "setting": "Qvalue 9.33 × 10^−42", "result": 1.995}, {"measurement": "log2 (TD/Ctrl) FAM111B", "setting": "Qvalue 9.51 × 10^−4", "result": "−1.222"}, {"measurement": "log2 (TD/Ctrl) FHL2", "setting": "Qvalue 9.62 × 10^−6", "result": 1.082}, {"measurement": "log2 (TD/Ctrl) NFKB2", "setting": "Qvalue 9.77 × 10^−25", "result": 1.551}, {"measurement": "log2 (TD/Ctrl) EDA2R", "setting": "Qvalue 9.85 × 10^−6", "result": "−1.374"}, {"measurement": "log2 (TD/Ctrl) EGR3", "setting": "Qvalue 9.86 × 10^−8", "result": 2.228}, {"measurement": "log2 (TD/Ctrl) LAMB3", "setting": "Qvalue 9.88 × 10^−5", "result": 1.323}, {"measurement": "log2 (TD/Ctrl) SAP30L", "setting": "Qvalue 9.88 × 10^−7", "result": "−1.0123"}, {"measurement": "log2 (TD/Ctrl) SCARA5", "setting": "Qvalue […] 10^−12", "result": 3.284}, {"measurement": "log2 (TD/Ctrl) GCNA", "setting": "Qvalue […] 10^−17", "result": 1.602}, {"measurement": "log2 (TD/Ctrl) TAC1", "setting": "Qvalue […] 10^−76", "result": 4.689}]}]}
